Measured values: patent US20260337187A1, “COMPOUNDS FOR TREATMENT OF INFLAMMATORY PROCESSES” (THORNE LIMITED, priority 2022, published 2026)
Read-outs that look alike come from different tables or passages of the source.

Experiments:
Assay type in all cases: cell-based
primary human B cells [1] = test: B lymphocyte IgE production (frequency of IgE+ B lymphocytes by FACS)
Experimental: B2 was applied at 3 different concentrations, from left to right: 50, 20 and 10 μM. Average of >10 experiments is shown.
B lymphocyte IgE production: B lymphocyte IgE production was measured in line with that previously described by Audzevich et al. (2013). Briefly, primary human B cells isolated by the MACSxpress Buffy Coat Pan B Cell Isolation Kit (Miltenyi Biotec) from buffy coat were stimulated for 6 days by recombinant hCD40L (100 μg/ml) and IL-4 (50 ng/ml) at a cell density of 5×10^4 cells/ml. The frequency of IgE+B lymphocytes was determined by FACS at day 6 using anti CD19 and anti IgE antibodies.
To investigate inhibition of B lymphocyte IgE production by B2, the frequency of IgE+B lymphocytes was determined by FACS at day 6 of primary human B cell cultures isolated from fresh buffy coat and stimulated by CD40L and IL4.

primary human mast cells = test: Mast cell cytokine release (cytokine array); details: 100 μM B2, 24 h, IgE/anti-IgE
Experimental: FIG. 8 is a plot showing average relative intensity of cytokine levels relative to control showing the modulation of mast cell cytokine release by B2. Average of 3 experiments.
Mast cell cytokine release: Primary human mast cells developed in culture from CD34+ precursors as described above in relation to mast cell degranulation were stimulated at a cell density of 0.8×10^6 cells/ml by 0.12 mg/ml IgE and 0.1 μg/ml anti-IgE in mast cell medium (StemSpan SFEM including 100 ng/ml SCF, 50 ng/ml IL6, 2 & FBS, and 1% Pen/Strep). Simultaneously, the cells were treated with 100 μM B2, and cytokine levels present in the culture supernatants were measured after 24 h. The levels of 105 cytokines were measured by the R&D Systems Human XL cytokine array as per manufacturer's instructions. The signals were measured by a fluorescence-based photometric read-out in the Li—COR Odyssey Fluorescent imaging system, and the spots quantified by Fiji software.
To investigate the modulation of mast cell cytokine release by B2, primary human mast cells were stimulated by IgE/anti-IgE, treated with 100 μM B2, and cytokine levels present in the culture supernatants measured after 24 h. The levels of 105 cytokines were measured by the R&D Systems Human XL cytokine array and a fluorescence-based photometric read-out.

primary human B cells [2] = test: B lymphocyte plasmablast development (CD38+/CD19low and CD138+ by FACS); details: 5 days; FIG. 4 (20 and 10 μM)
Experimental: The effect of two concentrations (from right to left: 20 and 10 μM) of B2 is shown in each plot in comparison to control (far left). Each symbol represents one experiment.
B lymphocyte plasmablast development: For human B lymphocyte plasmablast development, primary human B cells were isolated from buffy coat using the MACSxpress Buffy Coat Pan B Cell Isolation Kit (Miltenyi Biotec) as per manufacturer's instructions. The cells were cultured in RPMI in the presence of human transferrin (20 μg/ml), IL-21 (100 ng/ml), recombinant hCD40L (100 μg/ml), anti-HA (50 μg/ml), at a cell density of 5×10^4 cells/ml. Plasmablast formation after 5 days was measured by FACS using two sets of markers: CD38+/CD19low and CD138+ for two stages of plasmablast development.
To investigate the inhibition of B lymphocyte plasmablast development by B2, primary human B cells, isolated from buffy coat, were cultured in the presence of CD40, IL21, anti-IgM, and plasmablast formation measured by FACS using two sets of markers: CD38+/CD19low (FIG. 4, upper plot) and CD138+(FIG. 4, lower plot) for two stages of plasmablast development.

[3] = system: Human primary coronary artery endothelial cells (HCAEC); test: Coronary artery endothelial cell cytokine release (TNFα triggered, cytokine array); details: 50 μM B2, TNFα
Experimental: Human primary coronary artery endothelial cells (HCAEC) were triggered to produce cytokines by the pro-inflammatory cytokine TNFα. The levels of 105 cytokines in the cell culture supernatant were measured by the R&D Systems Human XL cytokine array and a fluorescence-based photometric read-out. The table lists cytokines whose production was reduced by >50% (left) or 20 to 50% upon treatment with 50 μM B2 (right).

Q: Which results are given for Cc1onc(-c2ccccc2Cl)c1C(=O)Nc1nc2ccc([N+](=O)[O-])cc2s1 [B2, 3-(2-chlorophenyl)-5-methyl-N-(6-nitrobenzo[d]thiazol-2-yl)isoxazole-4-carboxamide]?
A: toxicity in B lymphocyte culture (primary human B cells [1]; 50 μM B2, day 6): some toxicity was observed; IgE production by primary human peripheral blood B lymphocytes (primary human B cells [1]; CD40L and IL4, day 6, FIG. 5 (50, 20, 10 μM)): inhibits IgE production; toxicity in B lymphocyte culture (primary human B cells [1]; lower concentrations than 50 μM (20 and 10 μM), day 6): not observed; mast cell cytokine release profile (primary human mast cells): reducing specific pro-inflammatory cytokines; human B cell plasmablast development (primary human B cells [2]): inhibition of human B cell plasmablast development; inhibition at 50 µM ([3]; read-out: CCL5 production, inhibition): 20 to 50%; inhibition at 50 µM ([3]; read-out: CXCL1 production, inhibition): 20 to 50%; inhibition at 50 µM ([3]; read-out: CXCL5 production, inhibition): > 50%; inhibition at 50 µM ([3]; read-out: CXCL10 production, inhibition): > 50%; inhibition at 50 µM ([3]; read-out: CXCL11 production, inhibition): > 50%; inhibition at 50 µM ([3]; read-out: GM-CSF production, inhibition): 20 to 50%; inhibition at 50 µM ([3]; read-out: ICAM1 production, inhibition): 20 to 50%; inhibition at 50 µM ([3]; read-out: IGFBP2 production, inhibition): > 50%; inhibition at 50 µM ([3]; read-out: Thrombospondin-1 production, inhibition): > 50%; inhibition at 50 µM ([3]; read-out: VCAM1 production, inhibition): > 50%
